Like-named read-outs stand apart in the source and are kept apart here.
Experiments:
[1] = tested on: MT4 CMV-EGFP cells; test: Toxicity, mock-infected MT4 CMV-EGFP cells; assay type: cell-based, human
[2] = tested on: wild-type HIV-1IIIB strain; test: Antiviral activity, MT4 LTR-EGFP cellular assay; assay type: cell-based; parameters: key to Antiviral activity IIIB (pEC50): pEC50 = -log10(EC50); conditions: wild-type HIV-1 IIIB, MT4 LTR-EGFP cells, three days after infection
[3] = In vivo boosting capacity: pharmacokinetics of darunavir in Beagle dogs; conditions: fed male Beagle dogs, booster 5 mg/kg oral 15 min before darunavir 5 mg/kg oral, average of 3 dogs
Procedure: Oral dosing was done by gavage. At all times, the dogs were given free and continuous access to water. Blood samples were collected from the jugular vein at 0 (=predose), 0.5, 1, 2, 4, 7, and 24 h after dose administration. The samples were centrifuged at 1900×g for 10 min at 5° C. to allow plasma separation. Separated plasma was stored in the freezer within two hours after blood sampling. At all times, blood and plasma samples were placed on melting ice and protected from light. […] Values listed are the average of 3 dogs.

[4] = target: CYP2C9 (Homo sapiens, UniProt P11712); test: in vitro
Text: (§1) Assay 4: CYP450 Inhibition

[5] = Metabolic stability of test compounds (HLM15'); assay type: in vitro ADME, human
[6] = target: T1, CYP2D6 (Homo sapiens, UniProt P10635); test: CYP450 inhibition CDNA-CYP2D6-AMMC; conditions: 10 μM test compound, substrate AMMC 3 μM, 45 min
[7] = target: T2, CYP1A2 (Homo sapiens, UniProt P05177); test: CYP450 inhibition CDNA-CYP1A2-CEC; conditions: 10 μM test compound, substrate CEC 5 μM, 15 min
T2 sequence (P05177 1-516): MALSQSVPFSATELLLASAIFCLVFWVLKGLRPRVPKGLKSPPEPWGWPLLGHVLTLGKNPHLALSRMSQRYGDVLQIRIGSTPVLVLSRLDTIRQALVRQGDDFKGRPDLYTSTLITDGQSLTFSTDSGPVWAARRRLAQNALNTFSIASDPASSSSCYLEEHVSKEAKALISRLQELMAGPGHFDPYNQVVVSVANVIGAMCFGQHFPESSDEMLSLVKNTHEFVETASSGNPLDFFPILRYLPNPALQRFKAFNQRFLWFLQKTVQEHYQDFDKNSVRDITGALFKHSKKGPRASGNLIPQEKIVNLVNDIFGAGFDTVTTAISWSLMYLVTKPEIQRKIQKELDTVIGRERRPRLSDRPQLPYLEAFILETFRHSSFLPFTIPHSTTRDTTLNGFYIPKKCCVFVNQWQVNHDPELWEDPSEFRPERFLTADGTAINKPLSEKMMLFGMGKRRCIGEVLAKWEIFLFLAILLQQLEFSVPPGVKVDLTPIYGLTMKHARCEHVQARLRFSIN

[8] = target: T3, CYP2C19 (Homo sapiens, UniProt P33261); test: CYP450 inhibition CDNA-CYP2C19-CEC; conditions: 10 μM test compound, substrate CEC 25 μM, 30 min
[9] = target: T4, CYP3A4 (Homo sapiens, UniProt P08684); test: CYP450 inhibition CDNA-CYP3A4-BFC; conditions: for Cyp450 inhibition: CDNA-CYP3A4-BFC (% inhibition): 10 μM test compound, substrate BFC 150 μM, 30 min
Text: as §1

[10] = target: T4, CYP3A4; test: CYP450 inhibition CDNA-CYP3A4-BQ; conditions: for Cyp450 inhibition: CDNA-CYP3A4-BQ (% inhibition): 10 μM test compound, substrate BQ 60 μM, 30 min
Text: as §1

[11] = target: T4, CYP3A4; test: in vitro; conditions: for Cyp450 inhibition: CDNA-CYP3A4-DBF (% inhibition): 10 μM test compound, substrate DBF 1 μM, 10 min
Text: as §1

[12] = Toxicity, mock-infected MT4 CMV-EGFP cells; assay type: cell-based, human; conditions: human, mock-infected MT4 CMV-EGFP cells; read-out: Toxicity MT4 (pCC50) (converted)
[13] = target: T1, CYP2D6; test: in vitro; conditions: pH 7.4
[14] = target: T3, CYP2C19; test: in vitro; conditions: E. coli expressed CYP2C19, pH 7.4, probe CEC 25 μM
[15] = target: T2, CYP1A2; test: in vitro; conditions: E. coli expressed CYP1A2, pH 7.4, probe CEC 5 μM
[16] = human liver microsomes 1 mg/ml, 5 μM test compound, 15 min
[17] = mock-infected MT4 CMV-EGFP cells

T3 sequence (P33261 whole entry): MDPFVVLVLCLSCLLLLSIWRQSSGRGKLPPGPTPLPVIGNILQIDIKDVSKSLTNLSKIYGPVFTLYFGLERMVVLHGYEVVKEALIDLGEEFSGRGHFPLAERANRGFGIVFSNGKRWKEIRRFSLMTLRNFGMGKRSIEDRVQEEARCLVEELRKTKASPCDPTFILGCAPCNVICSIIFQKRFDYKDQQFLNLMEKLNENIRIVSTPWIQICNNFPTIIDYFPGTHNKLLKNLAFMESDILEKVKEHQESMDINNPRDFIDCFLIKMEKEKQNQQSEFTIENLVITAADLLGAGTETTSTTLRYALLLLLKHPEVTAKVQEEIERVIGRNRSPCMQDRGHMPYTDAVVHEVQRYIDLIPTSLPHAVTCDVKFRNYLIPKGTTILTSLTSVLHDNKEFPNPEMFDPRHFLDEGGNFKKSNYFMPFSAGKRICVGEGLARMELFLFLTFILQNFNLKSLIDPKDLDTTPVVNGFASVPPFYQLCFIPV
Chain of CYP2C9 (P11712 whole entry): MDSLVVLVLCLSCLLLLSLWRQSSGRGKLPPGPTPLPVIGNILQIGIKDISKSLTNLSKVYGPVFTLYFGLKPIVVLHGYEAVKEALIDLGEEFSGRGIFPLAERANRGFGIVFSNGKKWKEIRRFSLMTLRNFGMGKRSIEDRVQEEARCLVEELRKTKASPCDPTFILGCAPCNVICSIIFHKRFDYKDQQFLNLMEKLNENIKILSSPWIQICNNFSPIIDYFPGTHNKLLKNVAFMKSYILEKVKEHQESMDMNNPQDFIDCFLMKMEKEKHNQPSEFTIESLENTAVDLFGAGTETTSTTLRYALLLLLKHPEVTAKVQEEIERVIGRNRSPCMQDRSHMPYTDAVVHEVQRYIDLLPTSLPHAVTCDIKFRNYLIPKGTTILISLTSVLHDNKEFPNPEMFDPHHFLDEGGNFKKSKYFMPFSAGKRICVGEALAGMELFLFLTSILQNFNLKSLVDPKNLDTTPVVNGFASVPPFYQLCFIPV
T4 sequence (P08684 whole entry): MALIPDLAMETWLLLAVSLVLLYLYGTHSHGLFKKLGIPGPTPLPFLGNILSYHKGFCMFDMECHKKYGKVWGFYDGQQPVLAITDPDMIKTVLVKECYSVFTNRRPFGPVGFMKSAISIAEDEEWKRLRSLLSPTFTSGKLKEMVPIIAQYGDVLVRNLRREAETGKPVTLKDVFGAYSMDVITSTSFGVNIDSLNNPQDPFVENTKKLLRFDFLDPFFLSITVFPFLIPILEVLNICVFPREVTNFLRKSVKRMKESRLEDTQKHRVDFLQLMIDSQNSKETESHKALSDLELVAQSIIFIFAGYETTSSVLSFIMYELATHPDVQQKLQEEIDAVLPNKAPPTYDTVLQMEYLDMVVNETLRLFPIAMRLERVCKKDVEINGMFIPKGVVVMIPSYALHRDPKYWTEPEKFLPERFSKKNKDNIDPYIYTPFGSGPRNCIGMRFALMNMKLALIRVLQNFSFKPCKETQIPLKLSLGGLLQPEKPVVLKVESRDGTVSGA
T1 sequence (P10635 whole entry): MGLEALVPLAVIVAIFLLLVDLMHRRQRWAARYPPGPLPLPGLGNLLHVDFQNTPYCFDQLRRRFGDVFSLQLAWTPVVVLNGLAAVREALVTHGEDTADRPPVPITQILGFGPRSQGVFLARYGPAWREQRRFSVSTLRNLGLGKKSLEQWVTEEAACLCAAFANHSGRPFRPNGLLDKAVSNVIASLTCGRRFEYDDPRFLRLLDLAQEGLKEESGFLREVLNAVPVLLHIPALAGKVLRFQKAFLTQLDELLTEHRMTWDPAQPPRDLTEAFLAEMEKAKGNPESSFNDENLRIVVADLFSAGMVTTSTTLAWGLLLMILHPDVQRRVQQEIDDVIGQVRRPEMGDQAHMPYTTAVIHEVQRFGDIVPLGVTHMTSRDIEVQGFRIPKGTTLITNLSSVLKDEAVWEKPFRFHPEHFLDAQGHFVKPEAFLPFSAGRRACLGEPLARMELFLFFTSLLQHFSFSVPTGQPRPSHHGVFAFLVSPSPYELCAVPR

Row | Structure (SMILES) | Antiviral activity IIIB (pEC50) [2] | Cyp450 inhibition: CDNA-CYP2C9-MFC (% inhibition) [4] | Metabolic stability (HLM, % recovery after 15') [5, 16] | Toxicity MT4 (pCC50) [1, 17] | Cyp450 inhibition: CDNA-CYP2D6-AMMC (% inhibition) [6] | Cyp450 inhibition: CDNA-CYP1A2-CEC (% inhibition) [7] | Cyp450 inhibition: CDNA-CYP2C19-CEC (% inhibition) [8] | Cyp450 inhibition: CDNA-CYP3A4-BFC (% inhibition) [9] | Cyp450 inhibition: CDNA-CYP3A4-BQ (% inhibition) [10] | Cyp450 inhibition: CDNA-CYP3A4-DBF (% inhibition) [11] | further results
1 | CC(C)CN(C[C@@H](O)[C@H](Cc1ccccc1)NC(=O)OCc1cncs1)C(=O)c1ccc2ncsc2c1 [Compound C7] | =4.02 | 99% | 65% |  |  |  |  |  |  |  | Toxicity MT4 (pCC50) [1]: =4.00; C7h of darunavir [3]: 134 ng/mL
2 | CCNc1nc2ccc(C(=O)N(C[C@@H](O)[C@H](Cc3ccccc3)NC(=O)OCc3cncs3)CC(C)(C)O)cc2o1 [Compound C44] | <4.00 | 95% | 70% | <4.00 | 38% | 0% | 62% |  |  |  | 
3 | CC(C)CN(C[C@@H](O)[C@H](Cc1ccccc1)NC(=O)OCc1cncs1)C(=O)c1ccc2nc(N(C)C)oc2c1 [Compound C4] | =4.33 | 94% | 67% | =4.32 | 26% | 7% | 82% |  |  |  | 
4 | CC(C)CN(C[C@@H](O)[C@H](Cc1ccccc1)NC(=O)OCc1cncs1)C(=O)c1ccc2nc(NC3CCN(C)CC3)oc2c1 [Compound C25] | <4.00 | 12% | 8% | <4.00 | 67% | 0% | 7% | 77% | 71% | 76% | 
5 | CC(C)CN(C[C@@H](O)[C@H](Cc1ccccc1)NC(=O)OCc1cncs1)C(=O)c1ccc2nc(-c3ccncc3)oc2c1 [Compound C48] | <4.00 | 99% |  | <4.00 | 74% | 18% | 94% | 97% | 85% | 98% | Metabolic stability (HLM, % recovery after 15') [5]: 91%
6 | CCNc1nc2ccc(C(=O)N(CC(C)C)C[C@@H](O)[C@H](Cc3ccccc3)NC(=O)OCc3cncs3)cc2o1 [Compound C27] | =4.07 | 94% | 52% | <4.00 | 70% | 10% | 79% | 94% | 80% | 94% | 
7 | CC(C)CN(C[C@@H](O)[C@H](Cc1ccccc1)NC(=O)OCc1cncs1)C(=O)c1ccc2ncn(C)c2c1 [Compound C8, Thiazol-5-ylmethyl (2S,3R)-3-hydroxy-4-(N-isobutyl-1-methyl-1H-benzo[d]-imidazole-6-carboxamido)-1-phenylbutan-2-ylcarbamate] |  |  |  |  |  |  |  |  |  |  | CC50 at 3 days [12]: > 100 µM; inhibition at 30 min, 10 μM ([9]; human, E. coli expressed CYP3A4, pH 7.4, probe BFC 150 μM): 81%; EC50 ([2]; Human immunodeficiency virus 1, 72 h, read-out: Antiviral activity IIIB (pEC50) (converted)): > 100 µM; inhibition at 45 min, 10 μM [13]: 12%; inhibition at 30 min, 10 μM [14]: 75%; inhibition at 30 min, 10 μM ([10]; human, E. coli expressed CYP3A4, pH 7.4, probe BQ 60 μM): 72%; inhibition at 30 min, 10 μM ([4]; human, pH 7.4): 92%; inhibition at 10 min, 10 μM ([11]; human, pH 7.4): 93%; recovery at 15 min, 5 μM ([5]; pH 7.4, human liver microsomes 1 mg/ml, 5 μM test compound, 15 min, read-out: Metabolic stability (HLM, % recovery after 15')): 57%; inhibition at 15 min, 10 μM [15]: 4%
